Experimental findings from patent US20050288299A1, “Azaindole derivatives as inhibitors of p38 kinase” (priority 2002, published 2005) are described below.

Molecules are shown by their SMILES. pIC50: −log10 of the molar value.

This test deals with p38α kinase (Homo sapiens, UniProt Q16539). The test can be described thus: p38α Flash Plate Assay (p38 kinase inhibition). It counts as biochemical. Conditions: in vitro; 150 μM ATP, 0.05 mM biotinylated peptide substrate, 5 nM enzyme, 60 minute incubation at 30° Celsius; read-out: P38 α-FLASHPLATE IC50. The procedure: Assay for p38 Kinase Inhibition—p38α Flash Plate Assay
Sequence of p38α kinase (Q16539 whole entry): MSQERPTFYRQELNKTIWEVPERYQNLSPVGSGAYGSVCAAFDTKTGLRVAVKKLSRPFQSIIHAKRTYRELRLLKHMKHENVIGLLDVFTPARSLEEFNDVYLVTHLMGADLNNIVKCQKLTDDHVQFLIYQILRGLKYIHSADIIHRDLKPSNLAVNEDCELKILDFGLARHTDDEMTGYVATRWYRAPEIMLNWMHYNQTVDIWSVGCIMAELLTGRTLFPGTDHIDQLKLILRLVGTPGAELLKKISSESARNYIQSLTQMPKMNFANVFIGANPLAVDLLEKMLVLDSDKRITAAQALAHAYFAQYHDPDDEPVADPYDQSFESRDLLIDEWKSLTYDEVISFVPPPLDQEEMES
The compounds to be tested were solubilized in DMSO and diluted with water to the desired concentrations. The p38 kinase was diluted to 20 nM into a buffer containing 20 mM MOPS, pH 7.0, 25 mM beta-glycerol phosphate, 2 mg/ml gelatin, 0.5 mM EGTA (ethylene-bis-(oxyethylenenitrilo)-tetraacetic acid), and 4 mM dithiothreitol (DTT).
The reaction was carried out by mixing 20 μl test compound with 10 μl of a substrate cocktail containing 0.2 mM biotinylated peptide substrate and 0.6 mM ATP (+100 μCi/ml gamma-^33P-ATP) in a 5× assay buffer. The reaction was initiated by the addition of 10 μl of p38 kinase. Final assay conditions were 25 mM MOPS, pH 7.0, 26.25 mM beta-glycerol phosphate, 80 mM KCl, 22 mM MgCl2, 3 mM MgSO4, 1 mg/ml gelatin, 0.625 mM EGTA, 1 mM DTT, 0.05 mM peptide substrate, 150 μM ATP, and 5 nM enzyme. After a 60 minute incubation at 30° Celsius, the reaction was stopped by the addition of 10 μl per reaction of 0.25 M phosphoric acid.
A portion of the reaction was transferred to a streptavidin-coated Flash Plate (Perkin Elmer); the Flash Plate was incubated for 60 minutes at 30° Celsius and then washed 3× with PBS containing 0.01% Tween-20.
Counts incorporated are determined on a scintillation counter. Relative enzyme activity was calculated by subtracting background counts (counts measured in the absence of enzyme) from each result, and comparing the resulting counts to those obtained in the absence of inhibitor. IC50 values were determined with curve-fitting plots available with common software packages. The IC50 was expressed as the concentration of compound which inhibited the enzyme activity by 50%.

In general, pIC50 refers to the negative decadic logarithm of the IC50, by convention in mol/L. `CNC(=O)C(=O)c1c[nH]c2ccc(C(=O)N3C[C@H](C)N(Cc4ccc(F)cc4)C[C@H]3C)nc12` [compound 70]: the pIC50 is 6.22.

`COC(=O)C(=O)c1c[nH]c2cc(Cl)c(C(=O)N3C[C@H](C)N(Cc4ccc(F)cc4)C[C@H]3C)nc12` [compound 71]: the pIC50 was 7.47.

For `C[C@@H]1CN(Cc2ccc(F)cc2)[C@@H](C)CN1C(=O)c1nc2c(C(=O)C(=O)O)c[nH]c2cc1Cl` [compound 72], the pIC50 was 7.85.

Turning to `CNC(=O)C(=O)c1c[nH]c2cc(Cl)c(C(=O)N3C[C@H](C)N(Cc4ccc(F)cc4)C[C@H]3C)nc12` [compound 73], the pIC50 was 7.70.

`COc1cc2[nH]ccc2nc1C(=O)N1C[C@H](C)N(Cc2ccc(F)cc2)C[C@H]1C` [compound 74]: the pIC50 is 7.01.

On to `CNC(=O)C(=O)c1c[nH]c2cc(OC)c(C(=O)N3C[C@H](C)N(Cc4ccc(F)cc4)C[C@H]3C)nc12` [compound 76], for which the pIC50 is 7.01.
